From BindingDB's records for doi:10.7270/Q2F47MKR (Burnham Center For Chemical Genomics, 2010)

Assay: GPR35 antagonists, SAR follow-up, imaging, image-based, set 2 (AID 2480)

Row | SMILES | IC50 | IC50 (inactive by the depositor's call)
1 | Clc1ccccc1Cn1ncc2c(N3CCN(c4ccccc4)CC3)ncnc21 | > 32 µM | 
2 | COc1ccc(-c2nnc(-c3cccnc3)o2)cc1 [2-(4-methoxyphenyl)-5-pyridin-3-yl-1,3,4-oxadiazole] | > 32 µM | 
3 | O=C(CCCN1C(=O)/C(=C/c2cccs2)SC1=S)Nc1ccc(O)cc1 |  | 10.7 µM
4 | Cc1ccc(/C=C2\SC(=S)N(CCCC(=O)Nc3cccc(C(=O)O)c3)C2=O)cc1 [MLS001034563] | 0.24 µM | 
